Results reported in patent US11617740B2, “Chemical inhibitors of Mycobacterium tuberculosis DosRST signaling and persistence” (priority 2017, dated 2023).
≈ marks a conversion by molar mass, not a printed value. Entries after “also recorded” stand apart in the source; their conditions may differ. Where two headings read alike, the source gives them in different places.

How the values were obtained:
[1] = system: DosR-regulated genes hspX and tgs1; assay type: cell-based; conditions: for inhibition of hspX following DETA-NONOate treatment / inhibition of tgs1 following DETA-NONOate treatment / inhibition of hspX transcripts following vitamin C treatment / inhibition of tgs1 transcripts following vitamin C treatment: pretreated 24 h; for inhibition of hspX following DETA-NONOate treatment / inhibition of tgs1 following DETA-NONOate treatment: DETA-NONOate 2 h; for inhibition of hspX transcripts following vitamin C treatment / inhibition of tgs1 transcripts following vitamin C treatment: vitamin C 2 h
DosS = DosS (Mycobacterium tuberculosis, UniProt P9WGK3); test: DosS autophosphorylation assay; assay type: biochemical; conditions: 10-40 μM; HC103A 40 μM
Protocol: Autophosphorylation assay. The DosS autophosphorylation assay was performed as previously described. DosS protein was treated with 10 μM, 20 μM or 40 μM of HC104A, or HC106A. DMSO and 40 μM HC103A were also included as […].

[2] = system: DosR-controlled genes hspX and tgs1; assay type: cell-based; conditions: 40 μM, 48 h, infected macrophages
TAG accumulation in Mtb = assay type: cell-based; conditions: 40 μM, 6 d, vs DMSO treated WT
Mtb = assay type: cell-based, Mycobacterium tuberculosis
[3] = system: DosR regulated genes dosR, hspX, tgs1; assay type: cell-based; conditions: for inhibition of hspX and tgs1 gene expression during hypoxia: 10 μM, real-time PCR; for downregulation of dosR / downregulation of hspX / downregulation of tgs1: 40 μM, 6 d, in vitro
Mtb CDC1551 = assay type: cell-based; conditions: for survival relative to DMSO control during NRP: 40 μM, 10 days
DosR regulon = assay type: cell-based; conditions: WT CDC1551, 40 μM; for genes from dosR regulon inhibited: >2-fold, q<0.05
DosR = DosR (Mycobacterium tuberculosis, UniProt P9WMF9); test: Electrophoretic mobility shift assay (EMSA), DosR binding of hspX promoter DNA
[4] = system: DosRST pathway, CDC1551 (hspX′::GFP) reporter strain; test: microbe, parasite or virus in culture; assay type: cell-based
[5] = system: DosRST signaling, CDC1551 (hspX′::GFP); test: microbe, parasite or virus in culture; assay type: cell-based; conditions: 200 nM HC106A alone
[6] = system: DosR-regulated genes hspX and tgs1; assay type: cell-based; conditions: 20 μM, 6 d
[7] = microsomes, 0.5 h
[8] = Mycobacterium tuberculosis, 144 h, CDC1551 (hspX′::GFP), 6 d, read-out: EC50 of DosRST-dependent GFP fluorescence inhibition (FI)
[9] = Mycobacterium tuberculosis, Table 3, HC104 series, whole cell assay, read-out: EC50

DosR, sequence (P9WMF9 whole entry, looked up): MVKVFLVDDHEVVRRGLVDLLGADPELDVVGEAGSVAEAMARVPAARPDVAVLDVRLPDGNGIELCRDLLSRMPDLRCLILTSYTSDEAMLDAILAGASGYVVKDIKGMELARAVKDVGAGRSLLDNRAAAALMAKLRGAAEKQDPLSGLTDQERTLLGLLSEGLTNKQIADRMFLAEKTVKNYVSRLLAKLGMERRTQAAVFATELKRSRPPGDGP
DosS, sequence (P9WGK3 whole entry): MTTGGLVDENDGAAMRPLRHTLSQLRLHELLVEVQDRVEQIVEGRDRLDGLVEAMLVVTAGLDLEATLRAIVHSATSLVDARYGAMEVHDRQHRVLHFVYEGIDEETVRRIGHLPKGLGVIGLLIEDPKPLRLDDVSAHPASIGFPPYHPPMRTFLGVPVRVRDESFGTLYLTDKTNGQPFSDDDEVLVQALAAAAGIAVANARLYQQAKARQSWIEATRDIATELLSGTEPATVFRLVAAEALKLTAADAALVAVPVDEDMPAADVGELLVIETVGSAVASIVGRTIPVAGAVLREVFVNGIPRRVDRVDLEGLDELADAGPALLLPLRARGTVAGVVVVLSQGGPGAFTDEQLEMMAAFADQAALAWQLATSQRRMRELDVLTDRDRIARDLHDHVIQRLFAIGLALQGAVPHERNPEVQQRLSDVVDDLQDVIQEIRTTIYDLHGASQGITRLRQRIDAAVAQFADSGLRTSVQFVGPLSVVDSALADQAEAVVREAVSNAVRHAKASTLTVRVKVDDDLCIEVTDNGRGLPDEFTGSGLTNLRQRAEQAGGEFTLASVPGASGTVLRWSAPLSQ

For NCCN(CCN)/[N+]([O-])=N/O [DETA-NONOate, reference compound], the “induction of hspX by the inducer” value ([1]; 2 h induction) was 3024 fold and the “induction of tgs1 by the inducer” value ([1]; 2 h induction) was 113 fold.

With O=C(Nc1cccc(O)c1)c1cccc(NC(=O)c2cccs2)c1 [HC103A, reference compound] the “effect on DosS autophosphorylation” value (DosS) was “strongly inhibited”.

For CN(C)CCCN1C(=O)c2cccc3c(Br)ccc(c23)C1=O [HC104A], the “inhibition of hspX induction” value [2] was 185 fold, the “inhibition of tgs1 induction” value [2] was 10 fold and the “reduction of TAG accumulation” value (TAG accumulation in Mtb) was about 50%. For the same molecule, the “impact on Mtb growth” value (Mtb) was “minimal impact”, the “inhibition of hspX and tgs1 gene expression during hypoxia” value [3] was “strongly inhibited” and the “downregulation of dosR” value [3] was 6 fold. For the same molecule, the “downregulation of hspX” value [3] was 570 fold, the “downregulation of tgs1” value [3] was 13 fold and the “survival relative to DMSO control during NRP” value (Mtb CDC1551) was “no impact on Mtb survival”. For the same molecule, the “additional genes repressed that were not repressed in CDC1551(ΔdosR)” value (DosR regulon) was 119 genes, the “genes from dosR regulon inhibited” value (DosR regulon) was 26 genes and the “concentration at which inhibition of DosR DNA binding begins” value (DosR; 2 μM DosR, doses 1-80 μM) was 10 µM. For the same molecule, the “% free DNA” value (DosR; 20 μM, 2 μM DosR) was 72%, the “% free DNA” value (DosR; 30 μM, 2 μM DosR) was 89% and the “% free DNA” value (DosR; 40 μM, 2 μM DosR) was 92%. For the same molecule, the “inhibition of DosR DNA binding compared to DMSO” value (DosR; 40 μM, 2 μM DosR) was about 22 fold, the “% free DNA” value (DosR; 60 μM, 2 μM DosR) was 96% and the “% free DNA” value (DosR; 80 μM, 2 μM DosR (normalised as 100%)) was 100%. The IC50 (DosR; preliminary, data not shown, read-out: IC50 for inhibition of DosR-DNA binding) was about 10000 nM, the EC50 [4, 8] was 9800 nM and the EC50 [4, 9] was 9800 nM. For the same molecule, the “inhibition of hspX following DETA-NONOate treatment” value [1] was 302 fold, the “inhibition of tgs1 following DETA-NONOate treatment” value [1] was 6.6 fold and the “inhibition of hspX transcripts following vitamin C treatment” value [1] was 3.4 fold. The “inhibition of tgs1 transcripts following vitamin C treatment” value [1] was “no effect” and the “effect on DosS autophosphorylation” value (DosS) was “no inhibitory activity; also recorded: inhibitory activity was not observed; also recorded: no effect”.

With CN(C)CCCN1C(=O)c2cccc3cccc(c23)C1=O [HC104B] the “activity in the whole cell Mtb reporter assay” value [4] was “complete loss of activity” and the EC50 [4, 9] was over 200000 nM.

In the case of CN1C(=O)c2cccc3c(Br)ccc(c23)C1=O [HC104G], the “fold less active than HC104A” value [4] is reported as about 10 fold, the EC50 [4, 9] is reported as 43800 nM and the “fold less active than HC104A” value ([4]; whole cell assay) is reported as about 5 fold.

In the case of O=C(Nc1ccno1)Nc1ccc(Cl)cc1Cl [HC106A], the solubility (physchem) is reported as 110 µM (≈ 29.9 µg/mL), the “inhibition of hspX induction” value [2] is reported as 6 fold and the “inhibition of tgs1 induction” value [2] is reported as 4 fold. The “effect on DosRST signaling alone” value [5] was “no effect on its own”, the “reduction of TAG accumulation” value (TAG accumulation in Mtb) was about 50% and the “impact on Mtb growth” value (Mtb) was “minimal impact”. For the same molecule, the “inhibition of hspX and tgs1 gene expression during hypoxia” value [3] was “repressed to undetectable levels”, the “inhibition of hspX and tgs1 gene expression during hypoxia” value ([3]; listed as H106A) was “strongly inhibited” and the “downregulation of dosR” value [3] was 49 fold. For the same molecule, the “downregulation of hspX” value [3] was 1360 fold, the “downregulation of tgs1” value [3] was 1424 fold and the “survival relative to DMSO control during NRP” value (Mtb CDC1551) was 50%. For the same molecule, the “reduction of survival as compared to DMSO control” value (Mtb CDC1551; hypoxic shift-down model) was 50%, the “additional genes repressed that were not repressed in CDC1551(ΔdosR)” value (DosR regulon) was 35 genes and the “genes from dosR regulon inhibited” value (DosR regulon) was 53 genes. The “inhibition of hspX following DETA-NONOate treatment” value [1] was 362 fold, the “inhibition of tgs1 following DETA-NONOate treatment” value [1] was 151 fold and the “inhibition of hspX transcripts following vitamin C treatment” value [1] was 78 fold. The “inhibition of tgs1 transcripts following vitamin C treatment” value [1] was 14 fold, the “effect on DosS autophosphorylation” value (DosS) was “no inhibitory activity; also recorded: no effect” and the “inhibition of hspX, DosS overexpression” value ([6]; pVV16-DosS) was 23 fold. For the same molecule, the “inhibition of tgs1, DosS overexpression” value ([6]; pVV16-DosS) was 16.5 fold, the “downregulation of hspX, vector control” value ([6]; pVV16 empty vector) was 2331 fold and the “downregulation of tgs1, vector control” value ([6]; pVV16 empty vector) was 3470 fold.

In the case of O=C(Nc1ccon1)Nc1ccc(Cl)cc1Cl [HC106C], the “activity in the whole cell Mtb reporter assay” value [4] is reported as “no activity”.

In the case of O=C(Nc1ccc(Cl)cc1)Nc1ccno1 [HC106F, 1-(4-chlorophenyl)-3-(1,2-oxazol-5-yl)urea], the solubility (physchem) is reported as over 200 µM, the melting point is reported as 183 °C and the “fold enhanced activity relative to HC106A” value [4] is reported as about 10 fold. For the same molecule, the “fold enhanced activity relative to HC106A” value ([4]; whole cell assay) was about 2 fold and the “Microsomes (% remaining @ 30 minutes)” value [7] was 115% remaining.

Molecule O=C(Nc1ccccc1)Nc1ccno1 [MSU-33189, 3-(1,2-oxazol-5-yl)-1-phenylurea] has an EC50 [4, 8] of 630 nM.

In the case of O=C(Nc1ccno1)Nc1ccno1 [MSU-39444, 1,3-bis(1,2-oxazol-5-yl)urea], the EC50 ([4]; CDC1551 (hspX′::GFP), 6 d, read-out: EC50 of DosRST-dependent GFP fluorescence inhibition (FI)) is reported as about 2000 nM and the EC50 [4, 8] is reported as 1700 nM.

In the case of O=C(Nc1cccc(Cl)c1)Nc1ccno1 [MSU-39445, 1-(3-chlorophenyl)-3-(1,2-oxazol-5-yl)urea], the solubility (physchem) is reported as over 100 µM, the melting point is reported as 159 °C (dec.) and the EC50 [4, 8] is reported as 750 nM.

COc1ccc(NC(=O)Nc2ccno2)cc1 [MSU-39447, 1-(4-methoxyphenyl)-3-(1,2-oxazol-5-yl)urea] showed a solubility (physchem) of over 100 µM, a melting point of 166 to 167 °C and an EC50 [4, 8] of 610 nM.

With O=C(Nc1ccc(Cl)nc1)Nc1ccno1 [MSU-39448, 1-(6-chloropyridin-3-yl)-3-(1,2-oxazol-5-yl)urea] the melting point was 158 to 159 °C.

O=C(Nc1ccc(Cl)cn1)Nc1ccno1 [MSU-39450, 1-(5-chloropyridin-2-yl)-3-(1,2-oxazol-5-yl)urea] gave a melting point of 122 to 123 °C.

For O=C(Nc1ccc(Cl)c(Cl)c1)Nc1ccno1 [MSU-39452, 1-(3,4-dichlorophenyl)-3-(1,2-oxazol-5-yl)urea], the melting point was 164 °C.
